#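 GI50 is the concentration that inhibits growth by half. The concentration for full growth arrest is given as TGI.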
# Legend:
# Test in all cases: NCI-60 cell line screen, 384-well format
# [1] = tested on: MALME-3M melanoma
# [2] = tested on: MDA-MB-231 breast
# [3] = tested on: HT29 colon
# [4] = tested on: HCT-116 colon
# [5] = tested on: RXF 393 renal
# [6] = tested on: NCI-H226 lung
# [7] = tested on: OVCAR-3 ovarian
# [8] = tested on: HOP-62 NSCLC
# [9] = tested on: HL-60(TB) leukemia
# [10] = tested on: ACHN renal
# [11] = tested on: NCI-H322M lung
# [12] = tested on: MDA-MB-435 melanoma
# [13] = tested on: M14 melanoma
smiles,measurement,setting,value
COC(=O)c1ccc([C@H]2c3[nH]c4ccccc4c3C[C@H](C(=O)OC)N2C(=O)CCl)cc1,GI50,[1],14.8 nM
same,TGI,[1],29 nM
same,GI50,[2],14.4 nM
same,TGI,[2],28.6 nM
same,GI50,[3],227 nM
same,TGI,[3],707 nM
same,GI50,[4],366 nM
same,TGI,[4],1450 nM
same,GI50,[5],< 10 nM
same,TGI,[5],15.2 nM
same,GI50,[6],75.1 nM
same,TGI,[6],449 nM
same,GI50,[7],14.3 nM
same,TGI,[7],28.8 nM
same,GI50,[8],10.7 nM
same,TGI,[8],35.5 nM
same,GI50,[9],< 10 nM
same,TGI,[9],10.2 nM
same,GI50,[10],< 10 nM
same,TGI,[10],< 10 nM
same,GI50,[11],1140 nM
same,TGI,[11],2420 nM
same,GI50,[12],346 nM
same,TGI,[12],1570 nM
same,GI50,[13],51.2 nM
same,TGI,[13],216 nM

# From PubChem BioAssay (NCI)
